Where two headings read alike, the source gives them in different places. A value given as a limit tells only on which side of the number the result lay.

Data set [1] is described as follows: Microsomal stability (rat). The data set is classed as in vitro ADME. The note with it: liver microsomes 0.5 mg/mL; method gives CLint in μL/min/mg protein. The procedure:
(§1) The master solution was prepared as follows.
(§2) With NADPH: 10 μL of 20 mg/mL liver microsomes and 40 μL of 10 mM NADPH were added to the incubations. The final concentrations of microsomes and NADPH were 0.5 mg/mL and 1 mM, respectively.
(§3) Without NADPH: 10 μL of 20 mg/mL liver microsomes and 40 μL of ultra-pure H2O were added to the incubations. The final concentration of microsomes was 0.5 mg/mL.
(§4) The reaction was started with the addition of 4 μL of 3, 10, 30 and 100 μM test compound solution or control compound solution at the final concentration of 0.03, 0.1, 0.3 and 1 μM and carried out at 37° C.
(§5) Aliquots of 50 μL were taken from the reaction solution at 0, 15, 30, 45 and 60 min. The reaction was stopped by the addition of 4 volumes of cold acetonitrile with IS (100 nM alprazolam, 200 nM labetalol, 200 nM caffeine and 2 μM ketoprofen). Samples were centrifuged at 3, 220 g for 40 minutes. Aliquot of 100 μL of the supernatant was mixed with 100 μL of ultra-pure H2O and then used for LC-MS/MS analysis.
(§6) Peak areas were determined from extracted ion chromatograms. The slope value, k, was determined by linear regression of the natural logarithm of the remaining percentage of the parent drug vs. incubation time curve.
(§7) The in vitro half-life (in vitro t1/2) was determined from the slope value: in vitro t1/2=−(0.693/k) […]

Data set [2] concerns the target hERG channel (Homo sapiens (Human), UniProt Q12809). Briefly: hERG manual patch clamp. In kind it is cell-based. The procedure:
Cell lines and cell culture. HEK 293 cell line stably expressing hERG channel (Cat #K1236) was purchased from Invitrogen. The cells are cultured in 85% DMEM, 10% dialyzed FBS, 0.1 mM NEAA, 25 mM HEPES, 100 U/mL Penicillin-Streptomycin and 5 μg/mL Blasticidin and 400 μg/mL Geneticin. Cells were split using TrypLE™ Express about three times a week, and maintained between ˜40% to […] confluence. Before the assay, the cells were transferred onto the coverslips at 5×10^5 cells/per 6 cm cell culture dish and induced with doxycycline at 1 μg/mL for 48 hours.
Solution preparations. Extracellular solution (in mM): 132 NaCl, 4 KCl, 3 CaCl2, 0.5 MgCl2, 11.1 glucose, and 10 HEPES (pH adjusted to 7.35 with NaOH) Intracellular solution (in mM): 140 KCl, 2 MgCl2, 10 EGTA, 10 HEPES and 5 MgATP (pH adjusted to 7.35 with KOH). […]
Experimental procedure. […] The holding potential was set to −90 mV for 500 ms and the current was recorded at 50 kHz and filtered at 10 kHz. […]
The hERG current was elicited by depolarizing at +30 mV for 4.8 seconds and then the voltage was taken back to −50 mV for 5.2 seconds to remove the inactivation and observe the deactivating tail current. […] The current was recorded for 120 seconds to assess the current stability. […]
Data that met the above criteria for hERG current quality were further analyzed. Percent hERG current inhibition was calculated using the following equation. […]

The nature of data set [3]: Microsomal stability (human). In kind it is in vitro ADME. The conditions noted are these: liver microsomes 0.5 mg/mL; method gives CLint in μL/min/mg protein. The procedure:
as §1, §2, §3, §4, §5, §6, §7

Sequence of hERG channel (Q12809 whole entry): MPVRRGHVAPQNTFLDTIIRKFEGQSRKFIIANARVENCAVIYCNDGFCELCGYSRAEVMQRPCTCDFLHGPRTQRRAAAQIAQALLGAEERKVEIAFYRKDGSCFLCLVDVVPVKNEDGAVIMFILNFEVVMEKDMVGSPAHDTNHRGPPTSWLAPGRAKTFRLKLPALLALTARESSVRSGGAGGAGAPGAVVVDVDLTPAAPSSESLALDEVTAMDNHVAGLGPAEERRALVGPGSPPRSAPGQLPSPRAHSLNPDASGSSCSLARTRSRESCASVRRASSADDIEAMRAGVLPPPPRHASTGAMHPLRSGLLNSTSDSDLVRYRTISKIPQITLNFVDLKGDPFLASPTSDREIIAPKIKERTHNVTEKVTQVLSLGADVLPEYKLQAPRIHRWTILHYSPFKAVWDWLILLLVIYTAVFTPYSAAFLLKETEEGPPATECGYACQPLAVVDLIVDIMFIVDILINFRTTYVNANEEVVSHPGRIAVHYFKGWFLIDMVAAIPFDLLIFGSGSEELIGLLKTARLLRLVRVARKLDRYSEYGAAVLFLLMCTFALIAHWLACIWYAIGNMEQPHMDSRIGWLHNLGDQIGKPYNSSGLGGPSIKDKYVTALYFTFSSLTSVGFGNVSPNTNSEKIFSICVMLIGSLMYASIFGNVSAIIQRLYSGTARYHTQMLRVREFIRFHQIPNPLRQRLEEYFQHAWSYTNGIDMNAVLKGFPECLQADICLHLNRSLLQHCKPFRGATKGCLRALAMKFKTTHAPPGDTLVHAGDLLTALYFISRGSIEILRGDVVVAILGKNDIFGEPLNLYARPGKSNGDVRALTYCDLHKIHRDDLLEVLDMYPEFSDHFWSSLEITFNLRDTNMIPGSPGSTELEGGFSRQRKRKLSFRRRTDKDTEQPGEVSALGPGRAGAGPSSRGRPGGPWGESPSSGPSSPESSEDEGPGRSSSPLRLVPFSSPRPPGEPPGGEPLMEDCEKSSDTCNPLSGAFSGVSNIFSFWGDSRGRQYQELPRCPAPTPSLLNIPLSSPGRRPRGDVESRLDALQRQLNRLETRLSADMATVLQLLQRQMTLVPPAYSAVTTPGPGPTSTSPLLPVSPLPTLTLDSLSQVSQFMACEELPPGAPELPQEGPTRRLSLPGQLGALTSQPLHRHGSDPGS

As for `CC(C)(C)NC[C@H](O)c1cccc(C(F)(F)F)n1` [Compound 03-3], the Microsomal stability, Rat in data set [1] amounted to 3.48 µL/min/mg protein. In addition, the IC50 in data set [2] was over 30 µM. In data set [3], this compound gave a Microsomal stability, Human of 3.49 µL/min/mg protein.

Compound `CC(C)(C)NC[C@H](O)c1cccc(C#N)n1` [Compound 03-5, (S)-6-(2-(tert-butylamino)-1-hydroxyethyl)picolinonitrile] returned a Microsomal stability, Rat in data set [1] of 2.53 µL/min/mg protein. In addition, the IC50 in data set [2] (manual patch clamp, HEK 293 cells, read-out: hERG IC50) was over 30 µM. Further, the Microsomal stability, Human in data set [3] amounted to 2.96 µL/min/mg protein.

The record behind these values is patent US10947196B2, “Beta adrenergic agonist and methods of using the same” (CURASEN THERAPEUTICS, INC., priority 2019, dated 2021).
